Numbered stars: 1 amine (or outer) side, 2 acyl side, 3 side chain; on linkers, the order of the positions; unused ones are H or OH. Bridge positions count the residues as written; N and C are the ends. Square brackets hold non-standard residues; d marks the D form. Peptide text beside a SMILES is read from it. I, II: the chains in the order shown. * marks the point of attachment. Phe(4-tBu) = CC(C)(C)c1ccc(C[C@H](N)C(=O)O)cc1; 1Nal = N[C@@H](Cc1cccc2ccccc12)C(=O)O; 2Nal = N[C@@H](Cc1ccc2ccccc2c1)C(=O)O; Diglycolyl = O=C(COCC(=O)[*:2])[*:1]; NMeR = CN[C@@H](CCCNC(=N)N)C(=O)O; Palmitoyl = CCCCCCCCCCCCCCCC(=O)*; β3hE = N[C@@H](CCC(=O)O)CC(=O)O; Pen = CC(C)(S)[C@H](N)C(=O)O; Dap = NC[C@H](N)C(=O)O; Hexanoyl = CCCCCC(=O)*
Molecular target: α4β7 (Homo sapiens, UniProt P13612+P26010)
Test: α4β7-MAdCAM Cell Adhesion Assay (RPMI 8866 human cells)
Assay type: cell-based
Parameters: host or cells: RPMI 8866 human B lymphoblastoid cells
Settings: Table 3-B, Potency (α4β7); range classes; read-out: α4β7 cell (Hu) IC50
Outline: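 Adhesion read-out: MTT absorbance at 570 nm minus no-cell wells, after three washes. Plates coated with rh MAdCAM-1/Fc received peptide dilutions plus 200,000 RPMI 8866 cells in Mn2+ (1 mM)-supplemented DMEM, 0.1% BSA, HEPES pH 7, incubated 30-45 min, 37 °C.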

Chain of α4β7 (P13612 34-1032): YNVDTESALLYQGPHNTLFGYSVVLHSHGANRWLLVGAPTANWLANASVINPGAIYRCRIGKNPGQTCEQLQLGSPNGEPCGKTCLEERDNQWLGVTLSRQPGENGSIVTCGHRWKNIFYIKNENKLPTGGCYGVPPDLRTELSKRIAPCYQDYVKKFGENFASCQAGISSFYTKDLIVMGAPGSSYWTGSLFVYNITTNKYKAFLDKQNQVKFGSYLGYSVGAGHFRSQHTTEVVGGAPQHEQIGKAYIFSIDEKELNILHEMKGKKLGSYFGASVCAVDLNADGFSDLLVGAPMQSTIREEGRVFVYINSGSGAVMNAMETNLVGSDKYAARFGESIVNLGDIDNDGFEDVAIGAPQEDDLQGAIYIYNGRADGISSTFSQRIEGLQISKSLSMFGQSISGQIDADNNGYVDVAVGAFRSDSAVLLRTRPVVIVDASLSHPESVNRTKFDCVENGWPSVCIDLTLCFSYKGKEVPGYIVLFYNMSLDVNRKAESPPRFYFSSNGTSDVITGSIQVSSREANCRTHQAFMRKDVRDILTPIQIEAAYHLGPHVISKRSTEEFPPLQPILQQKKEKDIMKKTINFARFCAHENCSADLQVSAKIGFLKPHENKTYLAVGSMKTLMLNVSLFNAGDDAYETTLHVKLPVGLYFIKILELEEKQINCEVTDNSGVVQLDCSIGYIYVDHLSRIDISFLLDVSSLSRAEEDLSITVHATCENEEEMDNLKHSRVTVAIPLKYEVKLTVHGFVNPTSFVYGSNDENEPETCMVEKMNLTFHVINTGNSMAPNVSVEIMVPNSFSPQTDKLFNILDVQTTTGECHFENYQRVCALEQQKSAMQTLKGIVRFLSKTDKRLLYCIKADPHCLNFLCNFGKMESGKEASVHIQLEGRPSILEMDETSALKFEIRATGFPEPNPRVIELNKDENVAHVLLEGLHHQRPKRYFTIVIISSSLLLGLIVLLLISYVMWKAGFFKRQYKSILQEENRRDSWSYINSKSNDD
Chain of α4β7 (P26010 20-798): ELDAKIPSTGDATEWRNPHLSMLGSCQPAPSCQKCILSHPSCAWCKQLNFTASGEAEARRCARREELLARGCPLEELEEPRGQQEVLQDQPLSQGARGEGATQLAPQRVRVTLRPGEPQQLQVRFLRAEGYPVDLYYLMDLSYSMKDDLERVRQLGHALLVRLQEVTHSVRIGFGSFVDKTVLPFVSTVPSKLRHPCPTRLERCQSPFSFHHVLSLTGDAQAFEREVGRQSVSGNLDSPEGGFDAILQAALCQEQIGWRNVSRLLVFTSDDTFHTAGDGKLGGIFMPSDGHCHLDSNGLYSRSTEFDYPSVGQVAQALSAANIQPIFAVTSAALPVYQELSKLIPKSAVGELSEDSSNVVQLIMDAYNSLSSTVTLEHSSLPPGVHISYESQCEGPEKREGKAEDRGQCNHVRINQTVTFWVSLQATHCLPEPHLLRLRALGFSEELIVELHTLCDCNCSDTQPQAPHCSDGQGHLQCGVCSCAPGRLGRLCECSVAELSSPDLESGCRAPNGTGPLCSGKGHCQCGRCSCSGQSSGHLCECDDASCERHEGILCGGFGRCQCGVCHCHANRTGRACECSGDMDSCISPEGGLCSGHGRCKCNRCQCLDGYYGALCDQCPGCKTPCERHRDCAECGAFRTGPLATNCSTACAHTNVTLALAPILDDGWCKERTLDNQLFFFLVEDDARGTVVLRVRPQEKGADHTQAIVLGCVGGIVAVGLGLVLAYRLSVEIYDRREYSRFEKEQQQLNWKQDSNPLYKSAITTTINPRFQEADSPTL

SMILES	IC50 [nM]
CC(=O)N[C@@H]1C(=O)N(C)[C@@H](CCCNC(=N)N)C(=O)N[C@@H](CO)C(=O)N[C@@H](CC(=O)O)C(=O)N[C@@H]([C@@H](C)O)C(=O)N[C@@H](CC(C)C)C(=O)N[C@H](C(=O)N[C@@H](Cc2c[nH]c3ccccc23)C(=O)N[C@@H](CCC(N)=O)C(=O)N[C@H](CCCCNC(=O)COCC(=O)NCCCC[C@@H](NC(=O)[C@H](CCC(N)=O)NC(=O)[C@H](Cc2c[nH]c3ccccc23)NC(=O)[C@H]2NC(=O)[C@H](CC(C)C)NC(=O)[C@H]([C@@H](C)O)NC(=O)[C@H](CC(=O)O)NC(=O)[C@H](CO)NC(=O)[C@H](CCCNC(=N)N)N(C)C(=O)[C@@H](NC(C)=O)C(C)(C)SSC2(C)C)C(N)=O)C(N)=O)C(C)(C)SSC1(C)C [compound 82] (I: Ac-[Pen][NMeR]SDTL[Pen]WQ[dK]-NH2 / II: Ac-[Pen][NMeR]SDTL[Pen]WQ[dK]-NH2; disulfide I:1-I:7, II:1-II:7; linker I:10-II:10 via Diglycolyl)	50 to 100
CC(=O)N[C@@H]1C(=O)N(C)[C@@H](CCCNC(=N)N)C(=O)N[C@@H](CO)C(=O)N[C@@H](CC(=O)O)C(=O)N[C@@H]([C@@H](C)O)C(=O)N[C@@H](CC(C)C)C(=O)N[C@H](C(=O)N[C@@H](Cc2cccc3ccccc23)C(=O)N[C@H](CCCNC(=N)N)C(=O)N[C@H](CCCCNC(=O)COCC(=O)NCCCC[C@@H](NC(=O)[C@@H](CCCNC(=N)N)NC(=O)[C@H](Cc2cccc3ccccc23)NC(=O)[C@H]2NC(=O)[C@H](CC(C)C)NC(=O)[C@H]([C@@H](C)O)NC(=O)[C@H](CC(=O)O)NC(=O)[C@H](CO)NC(=O)[C@H](CCCNC(=N)N)N(C)C(=O)[C@@H](NC(C)=O)C(C)(C)SSC2(C)C)C(N)=O)C(N)=O)C(C)(C)SSC1(C)C [compound 114] (I: Ac-[Pen][NMeR]SDTL[Pen][1Nal][dR][dK]-NH2 / II: Ac-[Pen][NMeR]SDTL[Pen][1Nal][dR][dK]-NH2; disulfide I:1-I:7, II:1-II:7; linker I:10-II:10 via Diglycolyl)	100 to 500
CC(=O)N[C@@H]1C(=O)N(C)[C@@H](CCCNC(=N)N)C(=O)N[C@@H](CO)C(=O)N[C@@H](CC(=O)O)C(=O)N[C@@H]([C@@H](C)O)C(=O)N[C@@H](CC(C)C)C(=O)N[C@H](C(=O)N[C@@H](Cc2c[nH]c3ccccc23)C(=O)N[C@@H](CCC(=O)O)C(=O)N[C@@H](CN)C(N)=O)C(C)(C)SSC1(C)C [compound 59] (Ac-[Pen][NMeR]SDTL[Pen]WE[Dap]-NH2; disulfide 1-7)	10000 to 100000
CC(=O)N[C@@H]1C(=O)N(C)[C@@H](CCCNC(=N)N)C(=O)N[C@@H](CO)C(=O)N[C@@H](CC(=O)O)C(=O)N[C@@H]([C@@H](C)O)C(=O)N[C@@H](CC(C)C)C(=O)N[C@H](C(=O)N[C@@H](Cc2ccc(O)cc2)C(=O)N[C@H](CCC(=O)O)C(=O)N[C@H](CCCCNC(=O)COCC(=O)NCCCC[C@@H](NC(=O)[C@@H](CCC(=O)O)NC(=O)[C@H](Cc2ccc(O)cc2)NC(=O)[C@H]2NC(=O)[C@H](CC(C)C)NC(=O)[C@H]([C@@H](C)O)NC(=O)[C@H](CC(=O)O)NC(=O)[C@H](CO)NC(=O)[C@H](CCCNC(=N)N)N(C)C(=O)[C@@H](NC(C)=O)C(C)(C)SSC2(C)C)C(N)=O)C(N)=O)C(C)(C)SSC1(C)C [compound 123] (I: Ac-[Pen][NMeR]SDTL[Pen]Y[dE][dK]-NH2 / II: Ac-[Pen][NMeR]SDTL[Pen]Y[dE][dK]-NH2; disulfide I:1-I:7, II:1-II:7; linker I:10-II:10 via Diglycolyl)	50 to 100
CC(=O)N[C@@H]1C(=O)N(C)[C@@H](CCCNC(=N)N)C(=O)N[C@@H](CO)C(=O)N[C@@H](CC(=O)O)C(=O)N[C@@H]([C@@H](C)O)C(=O)N[C@@H](CC(C)C)C(=O)N[C@H](C(=O)N[C@@H](Cc2ccc3ccccc3c2)C(=O)N[C@H](CCCNC(=N)N)C(=O)N[C@H](CCCCNC(=O)COCC(=O)NCCCC[C@@H](NC(=O)[C@@H](CCCNC(=N)N)NC(=O)[C@H](Cc2ccc3ccccc3c2)NC(=O)[C@H]2NC(=O)[C@H](CC(C)C)NC(=O)[C@H]([C@@H](C)O)NC(=O)[C@H](CC(=O)O)NC(=O)[C@H](CO)NC(=O)[C@H](CCCNC(=N)N)N(C)C(=O)[C@@H](NC(C)=O)C(C)(C)SSC2(C)C)C(N)=O)C(N)=O)C(C)(C)SSC1(C)C [compound 120] (I: Ac-[Pen][NMeR]SDTL[Pen][2Nal][dR][dK]-NH2 / II: Ac-[Pen][NMeR]SDTL[Pen][2Nal][dR][dK]-NH2; disulfide I:1-I:7, II:1-II:7; linker I:10-II:10 via Diglycolyl)	1000 to 10000
CCCCCC(=O)N[C@@H]1C(=O)N(C)[C@@H](CCCNC(=N)N)C(=O)N[C@@H](CO)C(=O)N[C@@H](CC(=O)O)C(=O)N[C@@H]([C@@H](C)O)C(=O)N[C@@H](CC(C)C)C(=O)N[C@H](C(=O)N[C@@H](Cc2ccc(C(C)(C)C)cc2)C(=O)N[C@@H](CCC(=O)O)CC(=O)N[C@H](CCCCN)C(N)=O)C(C)(C)SSC1(C)C [compound 176] (Hexanoyl-[Pen][NMeR]SDTL[Pen][Phe(4-tBu)][β3hE][dK]-NH2; disulfide 1-7)	50 to 100
CCCCCCCCCCCCCCCC(=O)N[C@@H]1C(=O)N(C)[C@@H](CCCNC(=N)N)C(=O)N[C@@H](CO)C(=O)N[C@@H](CC(=O)O)C(=O)N[C@@H]([C@@H](C)O)C(=O)N[C@@H](CC(C)C)C(=O)N[C@H](C(=O)N[C@@H](Cc2ccc(C(C)(C)C)cc2)C(=O)N[C@@H](CCC(=O)O)CC(=O)N[C@H](CCCCN)C(N)=O)C(C)(C)SSC1(C)C [compound 178] (Palmitoyl-[Pen][NMeR]SDTL[Pen][Phe(4-tBu)][β3hE][dK]-NH2; disulfide 1-7)	1000 to 10000
CC(=O)N[C@@H]1C(=O)N(C)[C@@H](CCCNC(=N)N)C(=O)N[C@@H](CO)C(=O)N[C@@H](CC(=O)O)C(=O)N[C@@H]([C@@H](C)O)C(=O)N[C@@H](CC(C)C)C(=O)N[C@H](C(=O)N[C@@H](Cc2cccc3ccccc23)C(=O)N[C@H](Cc2c[nH]cn2)C(=O)N[C@H](CCCCNC(=O)COCC(=O)NCCCC[C@@H](NC(=O)[C@@H](Cc2c[nH]cn2)NC(=O)[C@H](Cc2cccc3ccccc23)NC(=O)[C@H]2NC(=O)[C@H](CC(C)C)NC(=O)[C@H]([C@@H](C)O)NC(=O)[C@H](CC(=O)O)NC(=O)[C@H](CO)NC(=O)[C@H](CCCNC(=N)N)N(C)C(=O)[C@@H](NC(C)=O)C(C)(C)SSC2(C)C)C(N)=O)C(N)=O)C(C)(C)SSC1(C)C [compound 112] (I: Ac-[Pen][NMeR]SDTL[Pen][1Nal][dH][dK]-NH2 / II: Ac-[Pen][NMeR]SDTL[Pen][1Nal][dH][dK]-NH2; disulfide I:1-I:7, II:1-II:7; linker I:10-II:10 via Diglycolyl)	50 to 100
CC(=O)N[C@@H]1C(=O)N(C)[C@@H](CCCNC(=N)N)C(=O)N[C@@H](CO)C(=O)N[C@@H](CC(=O)O)C(=O)N[C@@H]([C@@H](C)O)C(=O)N[C@@H](CC(C)C)C(=O)N[C@H](C(=O)N[C@@H](Cc2c[nH]c3ccccc23)C(=O)N[C@@H](CC(=O)O)C(=O)N[C@H](CCCCNC(=O)COCC(=O)NCCCC[C@@H](NC(=O)[C@H](CC(=O)O)NC(=O)[C@H](Cc2c[nH]c3ccccc23)NC(=O)[C@H]2NC(=O)[C@H](CC(C)C)NC(=O)[C@H]([C@@H](C)O)NC(=O)[C@H](CC(=O)O)NC(=O)[C@H](CO)NC(=O)[C@H](CCCNC(=N)N)N(C)C(=O)[C@@H](NC(C)=O)C(C)(C)SSC2(C)C)C(N)=O)C(N)=O)C(C)(C)SSC1(C)C [compound 87] (I: Ac-[Pen][NMeR]SDTL[Pen]WD[dK]-NH2 / II: Ac-[Pen][NMeR]SDTL[Pen]WD[dK]-NH2; disulfide I:1-I:7, II:1-II:7; linker I:10-II:10 via Diglycolyl)	25 to 50
CC[C@H](C)[C@@H]1NC(=O)[C@H](CCC(N)=O)NC(=O)[C@H](CO)NC(=O)[C@H](CCCNC(=N)N)N(C)C(=O)[C@@H](NC(C)=O)C(C)(C)SSC(C)(C)[C@@H](C(=O)N[C@@H](Cc2ccc(C(C)(C)C)cc2)C(=O)N[C@@H](CCC(=O)O)CC(=O)N[C@H](CCCCNC(=O)COCC(=O)NCCCC[C@@H](NC(=O)C[C@H](CCC(=O)O)NC(=O)[C@H](Cc2ccc(C(C)(C)C)cc2)NC(=O)[C@H]2NC(=O)[C@H](CCC(N)=O)NC(=O)[C@H]([C@@H](C)CC)NC(=O)[C@H](CCC(N)=O)NC(=O)[C@H](CO)NC(=O)[C@H](CCCNC(=N)N)N(C)C(=O)[C@@H](NC(C)=O)C(C)(C)SSC2(C)C)C(N)=O)C(N)=O)NC(=O)[C@H](CCC(N)=O)NC1=O [compound 189] (I: Ac-[Pen][NMeR]SQIQ[Pen][Phe(4-tBu)][β3hE][dK]-NH2 / II: Ac-[Pen][NMeR]SQIQ[Pen][Phe(4-tBu)][β3hE][dK]-NH2; disulfide I:1-I:7, II:1-II:7; linker I:10-II:10 via Diglycolyl)	10000 to 100000
CC[C@H](C)[C@@H]1NC(=O)[C@H](CC(=O)O)NC(=O)[C@H](CO)NC(=O)[C@H](CCCNC(=N)N)N(C)C(=O)[C@@H](NC(C)=O)C(C)(C)SSC(C)(C)[C@@H](C(=O)N[C@@H](Cc2ccc(C(C)(C)C)cc2)C(=O)N[C@@H](CCC(=O)O)CC(=O)N[C@H](CCCCNC(=O)CN(CC(=O)NCCCC[C@@H](NC(=O)C[C@H](CCC(=O)O)NC(=O)[C@H](Cc2ccc(C(C)(C)C)cc2)NC(=O)[C@H]2NC(=O)[C@H](CC(C)C)NC(=O)[C@H]([C@@H](C)CC)NC(=O)[C@H](CC(=O)O)NC(=O)[C@H](CO)NC(=O)[C@H](CCCNC(=N)N)N(C)C(=O)[C@@H](NC(C)=O)C(C)(C)SSC2(C)C)C(N)=O)C(=O)CCN)C(N)=O)NC(=O)[C@H](CC(C)C)NC1=O [compound 186]	100 to 500

— patent US9809623B2, “α4β7 peptide monomer and dimer antagonists” (Protagonist Therapeutics, Inc., priority 2014, dated 2017)
